# Results: PubChem BioAssay (NCI)
#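 Compound exposure: 48 hours, 5 concentrations, 96-well plates. At the GI50, growth is halved. The concentration for full growth arrest is given as TGI.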
# Experiments:
# Assay in all cases: NCI-60 cell line screen, 48 h
# [1] = test system: RPMI-8226 leukemia
# [2] = test system: HL-60(TB) leukemia
# [3] = test system: NCI-H460 lung
# [4] = test system: A549 NSCLC
# [5] = test system: HCT-15 colon
# [6] = test system: TK-10 renal
# [7] = test system: OVCAR-4 ovarian
# [8] = test system: LOX IMVI melanoma
# [9] = test system: 786-0 renal
# [10] = test system: A498 renal
Compound,GI50 [1],TGI [1],GI50 [2],TGI [2],GI50 [3],TGI [3],GI50 [4],TGI [4],GI50 [5],TGI [5],GI50 [6],TGI [6],GI50 [7],TGI [7],GI50 [8],TGI [8],GI50 [9],TGI [9],GI50 [10],TGI [10]
COc1ccc2c(CN3CCC[C@H]3C(=O)O)cc3cc4c(cc3c2c1)OCO4,9.87 µM,39.3 µM,22.9 µM,67.8 µM,14.6 µM,88.2 µM,21.5 µM,> 100 µM,19.1 µM,> 100 µM,14.7 µM,67.4 µM,19.2 µM,61.4 µM,5.06 µM,43.6 µM,16.2 µM,> 100 µM,11.1 µM,26.4 µM
NC(=O)c1ccc2c(-c3ccnc(NCCCO)n3)c(-c3ccc(F)cc3)nn2c1,> 25 µM,> 25 µM,> 21.9 µM,> 25 µM,> 25 µM,> 25 µM,> 23 µM,> 25 µM,> 25 µM,> 25 µM,> 18.6 µM,> 25 µM,> 25 µM,> 25 µM,> 25 µM,> 25 µM,> 25 µM,> 25 µM,7.24 µM,> 25 µM
O=C(CC12CC3CC(CC(C3)C1)C2)NCCOCCOCCOCCNC(=O)c1cc2c(o1)C(=O)c1ccccc1C2=O,1.57 µM,4.61 µM,1.4 µM,4.98 µM,0.398 µM,1.44 µM,0.331 µM,1.18 µM,1.43 µM,3.31 µM,3.14 µM,5.78 µM,1.12 µM,2.33 µM,0.712 µM,2.4 µM,2.55 µM,8.87 µM,1.59 µM,3.12 µM
COc1cc(C(=O)C/C(CCC(=O)Nc2ccc(Cl)cc2C)=N/NC(=O)C(N)=O)ccc1O,–,> 100 µM,–,> 100 µM,–,> 100 µM,–,> 100 µM,–,> 100 µM,–,> 100 µM,–,> 100 µM,–,> 100 µM,–,> 100 µM,–,> 100 µM
O=C1c2cc([N+](=O)[O-])ccc2-c2cccc(F)c21,–,> 100 µM,–,> 100 µM,–,> 100 µM,–,> 100 µM,–,> 100 µM,–,> 100 µM,–,> 100 µM,–,> 100 µM,–,> 100 µM,–,> 100 µM
O=C(Nc1ccc(F)cc1F)c1cc(Br)ccc1O,1.69 µM,5.29 µM,2.44 µM,7.17 µM,2.9 µM,> 100 µM,3.26 µM,> 100 µM,3.04 µM,17.3 µM,4.83 µM,> 100 µM,2.1 µM,92 µM,2.91 µM,21.2 µM,3.13 µM,10.2 µM,1.07 µM,2.75 µM
C[C@]12CC[C@H](OCCC#N)CC1=CC[C@@H]1C2CC[C@]2(C)/C(=N/OCCC#N)CCC12 (stereo not given in full),–,> 100 µM,–,> 100 µM,–,> 100 µM,–,> 100 µM,–,> 100 µM,–,> 88.6 µM,–,97.7 µM,–,> 100 µM,–,> 76.6 µM,–,> 100 µM
CC(=O)Nc1c(C)ccc2c1C(=O)c1ccccc1C2=O,–,> 100 µM,–,> 100 µM,–,> 100 µM,–,> 100 µM,–,> 100 µM,–,> 100 µM,–,> 100 µM,–,> 100 µM,–,> 100 µM,–,> 100 µM
